A word on the Ki: it is the equilibrium dissociation constant of an inhibitor or competing ligand from its target. In general, EC50 refers to the concentration at which the effect is half-maximal.

Where two headings read alike, the source gives them in different places. Bounds are passed on as bounds.

The text below walks through data of paper PMC11084632, “Pharmacological Evaluation of Cannabinoid Receptor Modulators Using GRABeCB2.0 Sensor” (International Journal of Molecular Sciences, 2024).

For one assay, the target named is CB1R. Conditions: cited from earlier work.
In the next assay the target is CB1 receptor. Conditions: cited from earlier work.
Assay [1] has as its target T1, GRABeCB2.0 sensor (Homo sapiens, UniProt P21554, S383T, form not given). Conditions: increasing concentrations; cited from earlier work.
Assay [2] addresses T1, GRABeCB2.0 sensor. The assay is classed as cell-based. Conditions: for Effect on CP55940 fluorescence signal/maximal fluorescence: modulator 1 μM, varying CP55940. The method, then:
For reported allosteric modulators, the binding assay was modified to test the ligand for basal activity, followed by the addition of the agonist, similar to the antagonist assay. […] The compound of interest was varied across concentrations ranging (as the case may be) from 1 nM, 3 nM, 10 nM, 30 nM, 100 nM, 300 nM, 1 μM, and 10 μM and performed in triplicate. The concentration of the compound depended on the modulator itself. The concentrations calculated were the final concentration inside the well of the 96-well plate, along with the 1% DMSO and 0.5 mg/mL BSA (See Supplementary Materials, Figure S1).
Statistical Methods: All GRABeCB2.0 fluorescent signals (in cases noted) are expressed as normalized ΔF/F0 as calculated for the fluorescence assay in the PHERAstar FSX Plate reader. EC50/IC50 values were calculated using GraphPad Prism 9 by fitting data to a nonlinear regression model with normalized variable slope (four parameters, normalized where indicated) or using three-parameter response. Data represent mean ± SEM from a minimum of at least three independent experiments performed in triplicates.

Assay [3] addresses T1, GRABeCB2.0 sensor. In kind it is cell-based. An excerpt:
(§1) Stable eCB2.0 sensor cell line: A stable sensor cell line was established in HEKtsA201 cells (Sigma-Aldrich, St. Louis, MO, USA) using the PiggyBac Transposon-based system (SBI, Palo Alto, CA, USA). Briefly, the open reading frame of the eCB2.0 sensor from eCB2.0 to C1^20 was cloned into the PB514B shuttle vector using In Fusion cloning (Takara, San Jose, CA, USA). The modified shuttle sequence was obtained with Sanger sequencing (Psomagen, Rockville, MD, USA) and verified (MacVector, Apex, NC, USA). HEKtsA201 cells were maintained in DMEM (Thermo Fisher, Waltham, MA, USA: Gibco #10569-010) supplemented with 10% fetal bovine serum (Gibco #A31605-01) and 1% penicillin/streptomycin (Gibco #15140-122) at 37 °C and 8% CO2. Cells were plated on 12-well tissue culture plates at approximately 50% confluency. This low cell density was used to avoid overgrowth of the cells during the delay between transfection and selection for stable integration. After 3 h, the eCB2.0 shuttle was co-transfected at a plasmid mass ratio of 10:1 with the SBI Transposase vector (PB210PA) using deacylated PEI [71]. All transfected wells were checked the next day for expression of the sensor by presence of basal cpeGFP fluorescence. […] Wells were selected for integration beginning at 4 days post transfection with […] Puromycin (Gibco #A11138-03). Selection was continued throughout all passages of the stable line. Cells were transferred to T25 (25 cm^2) tissue culture flasks after 10 to 14 days of selection.
Assay Procedure: The DMEM solution was removed from the T25 flat-sided cell culture flask by decantation. […] A total of 7 mL of fresh DMEM was added, and cells were gently pipetted to remove any remaining cells from the flask wall. The total volume (10 mL) was transferred to a 15 mL Falcon tube and centrifuged at 800× g for 4 min at 23 °C. Upon completion of centrifugation, the supernatant was removed and discarded, leaving behind a small pellet of cells that were resuspended in 4 mL of fresh DMEM. The cell suspension was mixed in a 1:1 ratio with 0.4% TrypanBlue ([…] each) and […] solution was added to each side of a Countess Cell Counting Chamber and inserted into the Countess II Automated Cell Counter (Thermo Fisher, Waltham, MA, USA). The concentration of cells as adjusted to 0.7–1.0 million cells/mL with DMEM complete media and […] was added to the desired wells of a clear bottom black plastic tissue culture treated 96-well plate. The plate was incubated at 37 °C and 8% CO2 for a 24–48 h period. After incubation, the […] DMEM buffer was removed and replaced with […] of DPBS buffer containing calcium and magnesium (Gibco #14040-133). After the addition of the DPBS buffer, a baseline reading of the cells was taken using the PHERAstar FSX microplate reader (BMG/Labtech, Cary, NC, USA) to establish the F0 or initial fluorescence (see Figure 1A,B).
When running the assay for an agonist, […] of the compound and […] of additional DPBS buffer was added to the wells. A concentration curve was made for the modulator with the final concentrations in the wells holding the cells ranging from 1 pM to 10 mM with 1% DMSO BSA in a total volume of […]. […] In either assay, the cannabinoid ligands were added, followed by incubation of the compound on the cells at 37 °C for 5 min before taking a fluorescence reading using the PHERAstar FSX microplate reader equipped with a GFP filter cube module (Ex. 485 nm/Em. 520 nm). The recorded values were the F or final fluorescence.
For reported allosteric modulators, the binding assay was modified to test the ligand for basal activity, followed by the addition of the agonist, similar to the antagonist assay.

The target of assay [4] is T1, GRABeCB2.0 sensor. In kind it is cell-based. Conditions: for EC50: HEK293 cells, without BSA, ΔF/F0 4-5 min, read-out: EC50 at inducing GRABeCB2.0 fluorescent signal; for Effect on GRABeCB2.0 basal fluorescence: no agonist.
Description: as §1
Assay Procedure: The DMEM solution was removed from the T25 flat-sided cell culture flask by decantation. […] A total of 7 mL of fresh DMEM was added, and cells were gently pipetted to remove any remaining cells from the flask wall. The total volume (10 mL) was transferred to a 15 mL Falcon tube and centrifuged at 800× g for 4 min at 23 °C. […] After the addition of the DPBS buffer, a baseline reading of the cells was taken using the PHERAstar FSX microplate reader (BMG/Labtech, Cary, NC, USA) to establish the F0 or initial fluorescence (see Figure 1A,B).
When running the assay for an agonist, […] of the compound and […] of additional DPBS buffer was added to the wells. […] In either assay, the cannabinoid ligands were added, followed by incubation of the compound on the cells at 37 °C for 5 min before taking a fluorescence reading using the PHERAstar FSX microplate reader equipped with a GFP filter cube module (Ex. 485 nm/Em. 520 nm). The recorded values were the F or final fluorescence.
Statistical Methods: All GRABeCB2.0 fluorescent signals (in cases noted) are expressed as normalized ΔF/F0 as calculated for the fluorescence assay in the PHERAstar FSX Plate reader.

Setting [5] is: read-out: GRABeCB2.0 IC50 0.5 mg/mL BSA.
Where [6] appears, read: reported, read-out: binding Ki (reported).

T1 sequence (P21554 whole entry S383T, looked up, form open): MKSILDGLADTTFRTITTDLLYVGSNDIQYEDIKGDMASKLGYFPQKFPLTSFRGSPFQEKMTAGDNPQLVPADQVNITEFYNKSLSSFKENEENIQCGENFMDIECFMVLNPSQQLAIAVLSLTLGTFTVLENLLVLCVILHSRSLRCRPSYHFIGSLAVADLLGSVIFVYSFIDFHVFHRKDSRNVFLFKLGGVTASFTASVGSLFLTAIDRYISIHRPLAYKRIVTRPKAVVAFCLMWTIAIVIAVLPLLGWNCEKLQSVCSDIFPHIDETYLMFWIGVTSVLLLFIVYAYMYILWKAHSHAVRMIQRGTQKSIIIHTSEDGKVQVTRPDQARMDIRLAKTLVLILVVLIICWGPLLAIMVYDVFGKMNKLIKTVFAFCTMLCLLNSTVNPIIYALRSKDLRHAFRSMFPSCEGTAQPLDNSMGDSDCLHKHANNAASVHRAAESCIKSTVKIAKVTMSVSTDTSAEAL

On to `CCCCC/C=C\C/C=C\C/C=C\C/C=C\CCCC(=O)NCCCl` [ACEA, (5Z,8Z,11Z,14Z)-N-(2-chloroethyl)icosa-5,8,11,14-tetraenamide], for which the inhibitory constant (Ki) was 1.4 nM at CB1R (Supplementary Table 1, # literature reported values, read-out: CB1R wild-type binding Ki) and 1.5 to 5 nM at CB1R (read-out: Ki for CB1 receptor). Moreover, the concentration giving a half-maximal response (EC50) at CB1 receptor (read-out: reported EC50 for the CB1 receptor) was 51 nM.
Turning to `C=C(C)[C@@H]1CCC(C)=C[C@H]1c1c(O)cc(CCCCC)cc1O` [CBD, cannabidiol], at GRABeCB2.0 sensor [1], the “Effect on basal GRABeCB2.0 fluorescent signal (reported)” value is recorded as “did not affect basal GRABeCB2.0 fluorescent signal”.
In the case of `O=[N+]([O-])C[C@H](c1ccccc1)c1c(-c2ccccc2)[nH]c2ccccc12` [GAT228], the “Effect on CP55940 fluorescence signal/maximal fluorescence” value at GRABeCB2.0 sensor [2] is “did not shift the fluorescence signal”.
`O=[N+]([O-])C[C@@H](c1ccccc1)c1c(-c2ccccc2)[nH]c2ccccc12` [GAT229]: the “Effect on CP55940-activated GRABeCB2.0 fluorescence” value on GRABeCB2.0 sensor [3] is on record as “more potent enhancer of sensor fluorescence than GAT228”. In addition, the “Effect on CP55940 fluorescence signal/maximal fluorescence” value at GRABeCB2.0 sensor [2] is listed as “increased the maximal fluorescence”. On GRABeCB2.0 sensor [2] (range of CP55940 concentrations), the “apparent α (Schild-like analysis)” value was above 1.
`CC(C)[C@H](N=C(NS(=O)(=O)c1ccc(Cl)cc1)N1C[C@H](c2ccccc2)C(c2ccc(Cl)cc2)=N1)C(N)=O` [JD5037]: the IC50 amounted to 148 ± 12 nM at GRABeCB2.0 sensor [3] (read-out: GRABeCB2.0 IC50) and 29 ± 3.5 nM on GRABeCB2.0 sensor [3] (setting [5]). The Ki at CB1R (read-out: binding Ki on CB1R) is 0.5 nM.
Consider `C/C(N)=N\C(=N/S(=O)(=O)c1ccc(C(F)(F)F)cc1)N1C[C@H](c2ccccc2)C(c2ccc(Cl)cc2)=N1` [MRI-1867], for which the IC50 at GRABeCB2.0 sensor [3] (read-out: GRABeCB2.0 IC50) was 105 ± 5.4 nM; on GRABeCB2.0 sensor [3] (setting [5]), 90 ± 5 nM; at CB1 receptor (reported, read-out: functional potency IC50 (reported)), 40 nM. Further, on CB1R (setting [6]), the inhibition constant Ki was 2.6 nM.
Consider `CC(=O)NC(N)=NC(=NS(=O)(=O)c1ccc(C(F)(F)F)cc1)N1C[C@H](c2ccccc2)C(c2ccc(Cl)cc2)=N1` [MRI-1891], for which, on CB1R (setting [6]), the Ki was 0.5 nM. Besides, the IC50 at CB1 receptor (printed after 'bias toward inhibition of the β-arrestin pathway, over G-protein signaling pathway', read-out: IC50 (reported)) was 6 nM.
For the molecule `CC(=O)OCCn1c(C)c(C)s/c1=N\C(=O)C1C(C)(C)C1(C)C` [MRI-2594], the EC50 on GRABeCB2.0 sensor [4] came out at 527 ± 27 nM.
Still for that read-out and setting: in the case of `CC(=O)OCCn1c(=NC(=O)C2C(C)(C)C2(C)C)sc2cc(C)ccc21` [MRI-2687] it was 1300 nM.
Take `CCc1c(C(=O)NCCc2ccc(N3CCCCC3)cc2)[nH]c2ccc(Cl)cc12` [ORG27569]: the “Effect on GRABeCB2.0 basal fluorescence” value at GRABeCB2.0 sensor [4] is given as “did not significantly alter basal fluorescence”. In addition, the “Effect on CP55940-activated GRABeCB2.0 fluorescence” value on GRABeCB2.0 sensor [3] is recorded as “void of any concentration-dependent effects”. Also, the IC50 on GRABeCB2.0 sensor [3] (read-out: IC50 as weak antagonists (normalized curve)) turned out to be 787 nM.
In the case of `CCNC1(C(N)=O)CCN(c2ncnc3c2nc(-c2ccccc2Cl)n3-c2ccc(Cl)cc2)CC1` [Otenabant], the inhibition constant Ki on CB1R (read-out: binding Ki for CB1R) was 0.7 nM. For the same molecule, at CB1 receptor (read-out: reported IC50), the IC50 is […].
On to `CC(=O)[C@H]1CC[C@H]2[C@@H]3CC=C4C[C@@H](O)CC[C@]4(C)[C@H]3CC[C@]12C` [Pregnenolone], for which the “Effect on GRABeCB2.0 basal fluorescence” value on GRABeCB2.0 sensor [4] is listed as “did not significantly alter basal fluorescence”. For the same molecule, the “Effect on CP55940-activated GRABeCB2.0 fluorescence” value at GRABeCB2.0 sensor [3] is “void of any concentration-dependent effects”. Also, the “Effect on 2-AG-activated GRABeCB2.0 fluorescence” value at GRABeCB2.0 sensor [3] (20 μM 2-AG) was “this behavior could be replicated”.
Turning to `CC(=O)NC(=N)NC(=NS(=O)(=O)c1ccc(Cl)cc1)N1C[C@@H](c2ccccc2)C(c2ccc(Cl)cc2)=N1` [R-MRI-1776], the “CB1 binding of R-enantiomers on the sensor” value on GRABeCB2.0 sensor [3] is listed as “weak CB1 binding”.
Still for that read-out and setting: in the case of `CC(=O)NC(=N)NC(=NS(=O)(=O)c1ccc(C(F)(F)F)cc1)N1C[C@@H](c2ccccc2)C(c2ccc(Cl)cc2)=N1` [R-MRI-1891] it was “weak CB1 binding”.
As for `C[C@H](NC(=O)C(C)(C)Oc1ccc(C(F)(F)F)cn1)[C@@H](Cc1ccc(Cl)cc1)c1cccc(C#N)c1` [Taranabant], the Ki on CB1R (read-out: reported Ki) is 0.13 nM.
Take Pregnenolone sulfate: at GRABeCB2.0 sensor [3], the “Effect on CP55940-activated GRABeCB2.0 fluorescence” value was “extinguished CP fluorescence but showed no concentration-dependent effects”.
